Measurements reported in patent publication EP1007514B1, “HETEROCYCLIC KETONES AS NPY Y5 ANTAGONISTS” (BAYER CORPORATION, priority 1997, dated 1999).

Legend:
[1] = target: T1, rat NPY Y5 receptor subtype (Rattus norvegicus, UniProt Q63634); test: NPY Y5 receptor membrane binding, [125I]PYY (rat); conditions: membrane protein; 75-100 pM [125I]PYY; 50% inhibition of specific binding; read-out: IC50 (µM) NPY receptor indicated rY5
T1 sequence (Q63634 1-445): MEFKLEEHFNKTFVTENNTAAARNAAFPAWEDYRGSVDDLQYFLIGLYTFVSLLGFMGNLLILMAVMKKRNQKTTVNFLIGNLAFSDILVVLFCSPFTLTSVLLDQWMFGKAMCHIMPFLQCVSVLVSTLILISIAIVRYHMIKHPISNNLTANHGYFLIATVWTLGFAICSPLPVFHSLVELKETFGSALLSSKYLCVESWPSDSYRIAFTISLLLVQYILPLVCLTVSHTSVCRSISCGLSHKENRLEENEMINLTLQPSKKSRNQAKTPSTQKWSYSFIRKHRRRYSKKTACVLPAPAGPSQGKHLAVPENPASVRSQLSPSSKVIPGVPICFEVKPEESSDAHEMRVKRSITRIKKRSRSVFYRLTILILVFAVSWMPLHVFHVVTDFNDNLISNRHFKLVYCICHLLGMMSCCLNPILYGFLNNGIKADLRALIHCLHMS
Experimental: (§1) Assays to determine human and rat NPY Y5 receptor subtype binding affinity are performed on GF/C Millipore 96-well plates pretreated with 0.02% polyethylenimine. The binding buffer is 25 mM Tris, 120 mM NaCl, 5 mM KCl, 1.2 mM KH2PO4, 2.5 mM CaCl2, 1.2 mM MgSO4, 0.1% BSA and 0.5 mg/ml bacitracin, pH 7.4. Samples consist of membrane protein, 75-100 pM [^125I] PYY (porcine, NEN-DuPont) and test compounds diluted in binding buffer. Nonspecific binding is defined by 1 µM PYY. After a 2 hour incubation at room temperature with constant mixing, the samples are aspirated on a vacuum manifold and rinsed with ice-cold binding buffer. The amount of radioactivity in each well is quantitated with either gamma counting or liquid scintillation. IC50 values, which correspond to 50% inhibition of specific binding, are determined with non-linear regression analysis.

[2] = target: T2, human NPY Y5 receptor subtype (Homo sapiens, UniProt Q15761); test: NPY Y5 receptor membrane binding, [125I]PYY (human); conditions: membrane protein; 75-100 pM [125I]PYY; 50% inhibition of specific binding; read-out: IC50 (µM) NPY receptor indicated hY5
T2 sequence (Q15761 1-445): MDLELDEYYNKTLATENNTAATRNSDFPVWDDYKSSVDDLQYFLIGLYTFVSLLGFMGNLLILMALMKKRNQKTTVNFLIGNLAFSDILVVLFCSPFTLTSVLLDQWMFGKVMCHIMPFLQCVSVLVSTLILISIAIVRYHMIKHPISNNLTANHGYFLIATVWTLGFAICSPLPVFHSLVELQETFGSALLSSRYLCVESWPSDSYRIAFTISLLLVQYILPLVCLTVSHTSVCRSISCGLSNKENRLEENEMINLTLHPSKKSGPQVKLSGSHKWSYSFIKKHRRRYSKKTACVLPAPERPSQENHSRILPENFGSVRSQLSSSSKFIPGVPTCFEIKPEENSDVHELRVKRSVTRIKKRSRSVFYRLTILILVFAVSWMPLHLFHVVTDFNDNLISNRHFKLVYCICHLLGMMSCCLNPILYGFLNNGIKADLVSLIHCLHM
Experimental: as §1

[3] = target: T3, rat NPY Y5 receptor (Rattus norvegicus, UniProt Q63634); test: In vitro functional assay, forskolin-stimulated cAMP in cells stably expressing the receptor; assay type: cell-based; conditions: percentage of forskolin-stimulated adenylate cyclase; 1 µM forskolin; test compound 10 µM; 80 - 120% indicates no significant agonistic effect
T3 construct: expressed in transfected cells
T3 sequence (Q63634 1-445): T1 sequence (Q63634 1-445)
Experimental: An in vitro functional assay to determine rat NPY Y5 receptor subtype binding affinity is performed by resuspending cells stably expressing the rat NPY Y5 receptor in serum-free DMEM containing 10 mM HEPES (pH 7.4) and 1 mM isobutylmethylxanthine (IBMX). One µM forskolin and test compounds at a final concentration of 10 µM are then added to the cells. After a 20 minute incubation of the samples at 37°C, the assay is stopped by placing the samples in boiling water for 3 minutes. The cAMP produced in each sample is quantitated with a radioimmunoassay kit (NEN DuPont). Data are expressed as a percentage of forskolin-stimulated adenylate cyclase. Data between 80 - 120% indicates no significant agonistic effect.

| IC50 [1] [µM] | IC50 [2] [µM] | % forskolin at 10 µM [3] [%] | SMILES |
| --- | --- | --- | --- |
| 0.46 | 0.83 |  | Cc1ccc(SCC(C(=O)c2ncc[nH]2)c2ccccc2)cc1 (stereo not shown) [Compound 2, (1H-Imidazol-2-yl)-2-phenyl-3-p-tolylsulfanyl-propan-1-one] |
| 0.0526 | 0.06 | 122 | Cc1ccc(S(=O)(=O)CC(C(=O)c2nc3cc(C)c(C)cc3[nH]2)c2ccccc2)cc1 (stereo not shown) [Compound 7, (5,6-Dimethyl-1H-benzoimidazol-2-yl)-2-phenyl-3-(toluene-4-sulfonyl)-propan-1-one] |
| 0.011 | 0.022 | 105 | O=C(c1nc2ccccc2[nH]1)C(CS(=O)(=O)c1ccccc1)c1ccccc1 (stereo not shown) [Compound 8, 3-Benzenesulfonyl-1-(1H-benzoimidazol-2-yl)-2-phenyl-propan-1-one] |

The next lines start with the molecule.

| SMILES | IC50 [1] [µM] | IC50 [2] [µM] | % forskolin at 10 µM [3] [%] |
| --- | --- | --- | --- |
| Cc1ccc(S(=O)(=O)CC(C(=O)c2nc3ccccc3s2)c2ccccc2)cc1 (stereo not shown) [Compound 6, 1-Benzothizol-2-yl-2-phenyl-3-(toluene-4-sulfonyl)-propan-1-one] | 10 | 8.8 | 89 |
| COc1ccc(S(=O)(=O)CC(C(=O)c2nc3ccccc3[nH]2)c2ccccc2)cc1 (stereo not shown) [Compound 10, 1-(1H-Benzoimidazol-2-yl)-3-(4-methoxy-benzenesulfonyl)-2-phenyl-propan-1-one] | 0.0067 | 0.011 | 106 |
| COc1ccc2[nH]c(C(=O)C(CS(=O)(=O)c3ccc(C)cc3)c3ccccc3)nc2c1 (stereo not shown) [Compound 14, 1-(5-Methoxy-1H-benzoimidazol-2-yl)-2-phenyl-3-(toluene-4-sulfonyl)-propan-1-one] |  | 0.08 | 99 |
